Patent publication US9790504B2, “Anti-tumor therapy” (The University of Chicago, priority 2013, dated 2017)
“Also recorded” adds a separate entry of the source.

Experiments:
[1] = tested on: two lung cancer cell lines; details: associated with suppression of the Stat3 pathway; cited from earlier work
Stat1 = assay: Western blot of interferon-mediated Stat1 activation with Jak inhibitors; assay type: cell-based; details: β- and γ-interferon (Type I and Type II IFN) signaling, SCC61 cells
Description: (§1) Treatment with TG and Rux inhibited β- and γ-interferon-mediated activation of Stat1 and Stat3;
(§2) Total cellular protein was extracted in radioimmunoprecipitation assay buffer with protease inhibitors added (1×PBS, 1% NP40, 0.5% sodium deoxycholate, 0.1% SDS, 1 mmol/L Na3VO4, 2 μg/mL aprotinin, 1 mmol/L phenylmethylsulfonyl fluoride). All samples were normalized by protein concentration using Bradford reagent and standard solution of bovine serum albumin (1 mg/mL). Concentration of all samples was adjusted to 1 mg/mL and equal amount of protein was loaded in each well. For total proteins, 10 μg of protein was loaded per well. Proteins were separated on 7.5%-12% SDS-PAGE (depending on molecular mass of protein) and transferred to polyvinylidene difluoride membranes (PVDF). Total proteins were detected using the rabbit or goat primary Abs. For loading control, the antibodies for actin (I-19) and glyceraldehyde-3-phosphate dehydrogenase (GAPDH; FL-335) were used. All antibodies were purchased from Santa Cruz Biotechnology. Images were quantified with ImageJ software by integration pixel values across the area of specific bands.
(§3) The effects of Jak1/2 and Jak2 inhibitors were investigated on the activation of Stat1 and Stat3 in the context of Type I and Type II IFN signaling. […]

Stat3 = assay: Western blot of interferon-mediated Stat3 activation with Jak inhibitors; assay type: cell-based; details: β- and γ-interferon (Type I and Type II IFN) signaling, SCC61 cells
Description: as §1, §2, §3

different cell lines = assay: Suppression of tumor growth in different cell lines; assay type: cell-based; details: data not shown
lung cancer cell lines = assay: Clonogenic assay, sensitivity of lung cancer cell lines to drug; assay type: cell-based
Description: (§4) To screen the candidate interferon-stimulated genes, a panel of fifteen individual cancer cell lines were selected from those available in our lab, the ATCC, or affiliated laboratories (see Table No. 3, below). These cell lines were characterized for relative radioresistance using a clonogenic assay. Briefly, the cells were cultured in their appropriate media at 5% CO2 at 37° C. Optimal cell plating concentrations for a p60 dish were determined for each cell line. The majority of cell lines were plated in triplicate at concentrations of 100 cells/plate for control, 1000 cells/plate for 2 Gy, 2000 cells/plate for 5 Gy, and 3000 cells/plate for 8 Gy. Plates were irradiated 24 hours after plating with either 2, 5, or 8 Gy using a Nordion Gammacell ^60Co irradiator operating at a dose rate of ˜18 Gy/minute. Cells were allowed to grow for 10-21 days (depending on the cell line) until colonies were >50 cells. Plates were then fixed with formalin and stained with crystal violet. Colonies with more than 50 cells were counted. Clonogenic survival for Clonogenic data was obtained for all cell lines tested in screen.
In subsequent experiments, 18 lung cancer cell lines were tested for sensitivity to the Jak2 inhibitor SAR302503 (TG) using a clonogenic assay. […] Further, radioresistance was positively correlated with resistance to Jak2 suppression in 11 cell lines. […]

H2030 cells = assay: Clonogenic assay, ionizing radiation plus TG; assay type: cell-based; details: 5 Gy+1 μM TG; most radioresistant cells
Description: as §4
In subsequent experiments, 18 lung cancer cell lines were tested for sensitivity to the Jak2 inhibitor SAR302503 (TG) using a clonogenic assay. […] Further, radioresistance was positively correlated with resistance to Jak2 suppression in 11 cell lines.

[2] = tested on: CW22Rv1 (pStat3-positive) xenografts; assay: Xenograft in nude mice treated by ionizing radiation, TG, or their combination; assay type: in vivo; details: constitutively active Jak/Stat signaling
Description: (§5) The relative sensitivity of lung cancer cell lines to TG and etoposide—one of the most common drugs in adjuvant chemotherapy of lung cancer was also tested. Subgroups of cell lines were found with relatively high resistance to etoposide (SF>0.5) but relatively sensitive to TG (0.1<SF<0.2; see FIG. 8). As proof of principle, two isogenic cell lines CWRR1 (pStat3-negative, without constitutive activation of Jak/Stat-signaling) and CW22Rv1 (with constitutively active Jak/Stat signaling) were established as xenografts in nude mice and treated by ionizing radiation, TG, or their combination.

[3] = tested on: CWRR1 (pStat3-negative) xenografts; assay: as above; assay type: in vivo; details: without constitutive activation of Jak/Stat signaling
Description: as §5

For Cc1cnc(Nc2ccc(N3CCN(C)CC3)cc2)nc1Nc1cccc(S(=O)(=O)NC(C)(C)C)c1 [TG101209], the radiosensitizing effects [1] is listed as “radiosensitizing effects”.
In the case of Cc1cnc(Nc2ccc(OCCN3CCCC3)cc2)nc1Nc1cccc(S(=O)(=O)NC(C)(C)C)c1 [TG], the “phosphorylation (activation) of Stat1” value (Stat1) is reported as “suppressed; also recorded: inhibited”, the “phosphorylation (activation) of Stat3” value (Stat3) is reported as “suppressed; also recorded: inhibited” and the “suppression of tumor growth compared to Ruxolitinib” value (different cell lines) is reported as “more effectively suppressed tumor growth compared to Ruxolitinib”. For the same molecule, the “sensitivity to TG” value (lung cancer cell lines; 7 relatively radioresistant cell lines of 18 lung cancer cell lines, clonogenic assay) was “high sensitivity”, the clonogenic colonies (H2030 cells) was “no clonogenic colonies formed” and the “sensitization to ionizing radiation” value [2] was “successfully sensitized”. The “sensitization to ionizing radiation” value [3] was “not sensitized”.
With COc1cc([C@@H]2c3cc4c(cc3[C@@H](O[C@@H]3O[C@@H]5CO[C@@H](C)O[C@H]5[C@H](O)[C@H]3O)[C@H]3COC(=O)[C@H]23)OCO4)cc(OC)c1O [etoposide] the “SF (surviving fraction)” value (lung cancer cell lines; subgroups of lung cancer cell lines with high resistance to etoposide but relatively sensitive to TG) was greater than 0.5.
